Experimental data as given in US8574563B2 (Bristol-Myers Squibb Company, priority 2006, dated 2013).
Read-outs that look alike come from different tables or passages of the source.

Test system: HCV 1b-377-neo replicon cells
Assay: HCV replicon assay, HCV 1b-377-neo replicon cells (1b FRET)
Assay type: cell-based, Hepatitis C virus genotype 1b
Conditions: HCV 1b-377-neo replicon cells, HCV 1b genotype, read-out: EC50 range against HCV 1b (Table 2, Range)
Outline: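 FRET-based replicon assay in HCV 1b-377-neo cells, including a comparison line carrying the NS5A Y2065H mutation that confers resistance to a reference compound.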

Structure (SMILES) | EC50 (Hepatitis C virus) | EC50
COc1ccc(-c2ccc(-c3cnc([C@@H]4CCCN4C(=O)[C@@H](c4ccccc4)N(C)C)[nH]3)cc2)cc1-c1c[nH]c([C@@H]2CCCN2C(=O)[C@@H](c2ccccc2)N(C)C)n1 [Example D33, (1R,1′R)-2,2′-((4-methoxy-3,4′-biphenyldiyl)bis(1H-imidazole-5,2-diyl(2S)-2,1-pyrrolidinediyl))bis (N,N-dimethyl-2-oxo-1-phenylethanamine)] | 0.001 to 0.999 nM | 
CCN(CC)[C@@H](C(=O)N1CCC[C@H]1c1ncc(-c2ccc(-c3ccc(-c4cnc([C@@H]5CCCN5C(=O)[C@H](NC5=NCCN5)C(C)C)[nH]4)cc3)cc2)[nH]1)c1ccccc1 [cj-11p, N-((1R)-1-(((2S)-2-(5-(4′-(2-((2S)-1-((2R)-2-(diethylamino)-2-phenylacetyl)-2-pyrrolidinyl)-1H-imidazol-5-yl)-4-biphenylyl)-1H-imidazol-2-yl)-1-pyrrolidinyl)carbonyl)-2-methylpropyl)-4,5-dihydro-1H-imidazol-2-amine] | 0.001 to 0.999 nM | 
CCN(C)[C@@H](C(=O)N1CCC[C@H]1c1ncc(-c2ccc(-c3ccc(-c4cnc([C@@H]5CCCN5C(=O)[C@@H](NC(=O)OC)C(C)C)[nH]4)cc3)cc2)[nH]1)c1ccccc1 [Example M78, methyl ((1S)-1-(((2S)-2-(5-(4′-(2-((2S)-1-((2R)-2-(ethyl(methyl)amino)-2-phenylacetyl)-2-pyrrolidinyl)-1H-imidazol-5-yl)-4-biphenylyl)-1H imidazol-2-yl)-1-pyrrolidinyl)carbonyl)-2-methylpropyl)carbamate] | 1 to 99 nM | 
CCN(CC)[C@H](C)C(=O)N1CCC[C@H]1c1ncc(-c2ccc(-c3ccc(-c4cnc([C@@H]5CCCN5C(=O)[C@@H](C)N(CC)CC)[nH]4)cc3)cc2)[nH]1 [Example M9, (2R,2′R)-1,1′-(4,4′-biphenyldiylbis(1H-imidazole-5,2-diyl(2S)-2,1-pyrrolidinediyl))bis(N,N-diethyl-1-oxo-2-propanamine)] | 100 to 999 nM | 
COC(=O)N[C@@H](C(=O)N1CCC[C@H]1c1ncc(-c2ccc(-c3ccc(-c4cnc([C@@H]5CCCN5C(=O)C(c5ccc6sc(C)nc6c5)N(C)C)[nH]4)cc3)cc2)[nH]1)c1ccccc1 (stereo partly drawn) [Example 84-53, methyl ((1R)-2-((2S)-2-(5-(4′-(2-((2S)-1-((dimethylamino)(2-methyl-1,3-benzothiazol-5-yl)acetyl)-2-pyrrolidinyl)-1H-imidazol-5-yl)-4-biphenylyl)-1H-imidazol-2-yl)-1-pyrrolidinyl)-2-oxo-1-phenylethyl)carbamate] | 0.001 to 0.999 nM | 
O=C(OCc1ccccc1)N1CCN(C(C(=O)N2CCC[C@H]2c2ncc(-c3ccc(-c4ccc(-c5c[nH]c([C@@H]6CCCN6C(=O)[C@H]6CCCO6)n5)cc4)cc3)[nH]2)c2ccccc2)CC1 (single isomer, unassigned) [Example 103-6] |  | 1 to 99 nM
CN(C)C(C(=O)N1CCC[C@H]1c1ncc(-c2ccc(-c3ccc(-c4cnc([C@@H]5CCCN5C(=O)[C@@H](c5ccccc5)N(C)C)[nH]4)cc3)cc2)[nH]1)c1cccnc1 (stereo partly drawn) [Example 94-45, 2-((2S)-2-(5-(4′-(2-((2S)-1-((2R)-2-(dimethylamino)-2-phenylacetyl)-2-pyrrolidinyl)-1H-imidazol-5-yl)-4-biphenylyl)-1H-imidazol-2-yl)-1-pyrrolidinyl)-N,N-dimethyl-2-oxo-1-(3-pyridinyl)ethanamine] | 0.001 to 0.999 nM | 
COC(=O)N[C@@H](C(=O)N1CSC[C@H]1c1ncc(-c2ccc(-c3ccc(-c4cnc([C@@H]5CSCN5C(=O)[C@H](NC(=O)OC)c5ccccc5)[nH]4)cc3)cc2)[nH]1)c1ccccc1 [Example 149, dimethyl (4,4′-biphenyldiylbis(1H-imidazole-5,2-diyl(4R)-1,3-thiazolidine-4,3-diyl((1R)-2-oxo-1-phenyl-2,1-ethanediyl)))biscarbamate] | 0.001 to 0.999 nM | 
CCNC(=O)N[C@@H](C(=O)N1CCC[C@H]1c1ncc(-c2ccc(-c3ccc(-c4cnc([C@@H]5CCCN5C(=O)[C@H](NC(=O)NCC)c5ccccc5)[nH]4)cc3)cc2)[nH]1)c1ccccc1 [Example 24-4c, N′,N′′′-(4,4′-biphenyldiylbis(1H-imidazole-5,2-diyl(2S)-2,1-pyrrolidinediyl((1R)-2-oxo-1-phenyl-2,1-ethanediyl)))bis(1-ethylurea)] | 0.001 to 0.999 nM | 
COC(=O)N[C@@H](C(=O)N1CCC[C@H]1c1ncc(-c2ccc(-c3ccc(-c4cnc([C@@H]5CCCN5C(=O)CCN(C)C)[nH]4)cc3)cc2)[nH]1)c1ccccc1 [Example 84-15, methyl ((1R)-2-((2S)-2-(5-(4′-(2-((2S)-1-(N,N-dimethyl-beta-alanyl)-2-pyrrolidinyl)-1H-imidazol-5-yl)-4-biphenylyl)-1H-imidazol-2-yl)-1-pyrrolidinyl)-2-oxo-1-phenylethyl)carbamate] | 1 to 99 nM | 
CCN(CC)[C@@H](C(=O)N1CCC[C@H]1c1ncc(-c2ccc(-c3ccc(-c4cnc([C@@H]5CCCN5C(=O)[C@@H]5CC[C@H](NC(=O)OC)C5)[nH]4)cc3)cc2)[nH]1)c1ccccc1 [cj-57, methyl ((1S,3R)-3-(((2S)-2-(5-(4′-(2-((2S)-1-((2R)-2-(diethylamino)-2-phenylacetyl)-2-pyrrolidinyl)-1H-imidazol-5-yl)-4-biphenylyl)-1H-imidazol-2-yl)-1-pyrrolidinyl)carbonyl)cyclopentyl)carbamate] | 0.001 to 0.999 nM | 
CC(=O)CCC(=O)N1CCC[C@H]1c1ncc(-c2ccc(-c3ccc(-c4cnc([C@@H]5CCCN5C(=O)[C@@H](c5ccccc5)N(C)C)[nH]4)cc3)cc2)[nH]1 [Example 94-37, 5-((2S)-2-(5-(4′-(2-((2S)-1-((2R)-2-(dimethylamino)-2-phenylacetyl)-2-pyrrolidinyl)-1H-imidazol-5-yl)-4-biphenylyl)-1H-imidazol-2-yl)-1-pyrrolidinyl)-5-oxo-2-pentanone] | 1 to 99 nM | 
CN(C)[C@@H](C(=O)N1CCC[C@H]1c1ncc(-c2ccc(-c3ccc(-c4cnc([C@@H]5CCCN5C(=O)[C@@H](c5ccccc5)N5CCC(C)(O)CC5)[nH]4)cc3)cc2)[nH]1)c1ccccc1 [Example 94-3, 1-((1R)-2-((2S)-2-(5-(4′-(2-((2S)-1-((2R)-2-(dimethylamino)-2-phenylacetyl)-2-pyrrolidinyl)-1H-imidazol-5-yl)-4-biphenylyl)-1H-imidazol-2-yl)-1-pyrrolidinyl)-2-oxo-1-phenylethyl)-4-methyl-4-piperidinol] | 0.001 to 0.999 nM | 
CCNCC(=O)N1CCC[C@H]1c1ncc(-c2ccc(-c3ccc(-c4cnc([C@@H]5CCCN5C(=O)[C@@H](NC(=O)OC)C(C)C)[nH]4)cc3)cc2)[nH]1 [LS21, methyl ((1S)-1-(((2S)-2-(5-(4′-(2-((2S)-1-(N-ethylglycyl)-2-pyrrolidinyl)-1H-imidazol-5-yl)-4-biphenylyl)-1H-imidazol-2-yl)-1-pyrrolidinyl)carbonyl)-2-methylpropyl)carbamate] | 0.001 to 0.999 nM | 
CN(C)[C@@H](C(=O)N1CCC[C@H]1c1ncc(-c2ccc(-c3ccc(-c4cnc([C@@H]5CCCN5C(=O)[C@@H]5CCN(Cc6ccccc6)C5)[nH]4)cc3)cc2)[nH]1)c1ccccc1 [Example 94-17, (1R)-2-((2S)-2-(5-(4′-(2-((2S)-1-(((3R)-1-benzyl-3-pyrrolidinyl)carbonyl)-2-pyrrolidinyl)-1H-imidazol-5-yl)-4-biphenylyl)-1H-imidazol-2-yl)-1-pyrrolidinyl)-N,N-dimethyl-2-oxo-1-phenylethanamine] | 0.001 to 0.999 nM | 
COC(=O)NC(C)(C)C(=O)N1[C@@H](C)CC[C@H]1c1nc(-c2ccc(-c3ccc(-c4c[nH]c([C@@H]5CC[C@H](C)N5C(=O)C(C)(C)NC(=O)OC)n4)cc3)cc2)c[nH]1 [Example M156, methyl (2-((2S,5S)-2-(4-(4′-(2-((2S,5S)-1-(2-((methoxycarbonyl)amino)-2-methylpropanoyl)-5-methyl-2-pyrrolidinyl)-1H-imidazol-4-yl)-4-biphenylyl)-1H-imidazol-2-yl)-5-methyl-1-pyrrolidinyl)-1,1-dimethyl-2-oxoethyl)carbamate] | 1 to 99 nM | 
CCCN[C@@H](C(=O)N1CCC[C@H]1c1nc(-c2ccc(-c3ccc(-c4cnc([C@@H]5CCCN5C(=O)[C@H](NCCC)c5ccccc5)[nH]4)cc3)cc2)c[nH]1)c1ccccc1 [Example F16, N-((1R)-2-oxo-1-phenyl-2-((2S)-2-(4-(4′-(2-((2S)-1-((2R)-2-phenyl-2-(propylamino)acetyl)-2-pyrrolidinyl)-1H-imidazol-5-yl)-4-biphenylyl)-1H-imidazol-2-yl)-1-pyrrolidinyl)ethyl)-1-propanamine] | 0.001 to 0.999 nM | 
CN(C)c1ccc(C(=O)N2CCC[C@H]2c2ncc(-c3ccc(-c4ccc(-c5cnc([C@@H]6CCCN6C(=O)[C@@H](c6ccccc6)N6CCCCC6)[nH]5)cc4)cc3)[nH]2)cc1 [Example 107-4, N,N-dimethyl-4-(((2S)-2-(5-(4′-(2-((2S)-1-((2R)-2-phenyl-2-(1-piperidinyl)acetyl)-2-pyrrolidinyl)-1H-imidazol-5-yl)-4-biphenylyl)-1H-imidazol-2-yl)-1-pyrrolidinyl)carbonyl)aniline] | 0.001 to 0.999 nM | 
COC(=O)N[C@@H](C)C(=O)N1CCC[C@H]1c1ncc(-c2ccc(-c3ccc(-c4cnc([C@@H]5CCCN5C(=O)[C@H]5CCC[C@@H]5NC(=O)OC)[nH]4)cc3)cc2)[nH]1 [cj-118, methyl ((1S,2S)-2-(((2S)-2-(5-(4′-(2-((2S)-1-(N-(methoxycarbonyl)-L-alanyl)-2-pyrrolidinyl)-1H-imidazol-5-yl)-4-biphenylyl)-1H-imidazol-2-yl)-1-pyrrolidinyl)carbonyl)cyclopentyl)carbamate] | 0.001 to 0.999 nM | 
COCC[C@H](NC(=O)OC)C(=O)N1CCC[C@H]1c1ncc(-c2ccc(-c3ccc(-c4cnc([C@@H]5CCCN5C(=O)[C@H](C)NC(=O)OC)[nH]4)cc3)cc2)[nH]1 [cj-120, methyl ((1S)-3-methoxy-1-(((2S)-2-(5-(4′-(2-((2S)-1-(N-(methoxycarbonyl)-L-alanyl)-2-pyrrolidinyl)-1H-imidazol-5-yl)-4-biphenylyl)-1H-imidazol-2-yl)-1-pyrrolidinyl)carbonyl)propyl)carbamate] | 0.001 to 0.999 nM | 
